Positions of bridges follow the written chain, without caps; N, C: chain ends. No end group written: not given here.
Key:
[1] = test system: B16F10-Nex2 melanoma cells; assay: Syngeneic metastatic melanoma model, lung nodule count; format: in vivo, C57BL/6 mice; details: for antitumor activity (pulmonary nodules): alone, Rb9 300 μg 5 consecutive days, Imiquimod 50 μg 3 alternate days, CpG and Poly (I:C) two alternate days; for activity against metastatic melanoma of scramble peptides: 300 μg (10 mg/kg) i.p., alternate days, 5 doses, lungs after 14 days
Experimental: Male C57BL/6 mice, 6 to 8-week-old were obtained from the Center for Development of Experimental Models (CEDEME), Federal University of Sao Paulo (UNIFESP). For the in vivo metastatic model, C57BL/6 mice received one intravenous (i.v.) injection of 2×10^5 viable B16-F10-Next melanoma cells in 100 μL. […] The control group received 100 μL PBS. Twenty-two days later, mice (minimum n=3 per group) had their lungs harvested, and the number of macroscopic melanotic nodules were counted. The Ethical Committee of Federal University of São Paulo, Project no. 1234, 2011, approved all experiments with animals, according to International guidelines. For the subcutaneous model, mice were injected with 5×10^5 tumor cells suspended in 100 μL of PBS in the right flank via the subcutaneous route. The peptide (300 μg) was solubilized in 10 μL of distilled H2O and 90 μL of PBS and injected per mouse via the intraperitoneal route. The administration of the peptide was performed in 5 alternate days initiating one day after tumor challenge. Tumor longitudinal diameter (D) and transverse diameter (d) were measured every 2 days until the tumor volume reached 3,000 mm3. Animals were sacrificed when the allowed volume was reached. Volume was calculated using the formula v=Dd^2×0.52. Tumor Cell Growth In Vitro and In Vivo Details of the in vitro tumor cell growth, cytotoxicity tests, determination of viable cells and in vivo protection experiments with B16F10 cells in a mouse metastatic model are described in Polonelli et al. (PLoS One. 3(6):e2371, 2008) and Dobroff et al. (Transl. Onc., 3: 204-217, 2010).
6 to 8 Week-old C57BL/6 mice (n=5, per group) were intravenously challenged with 1×10^5 of syngeneic B16F10-Nex2 viable cells in 0.1 mL of RPMI medium without FBS, and treated on the next day with intraperitoneal doses of 300 μg (10 mg/kg) each, of Scr1, Scr2, Scr3 or Scr4 peptide or with the control vehicle (PBS) in alternate days, total of 5 doses. After 14 days, mice were euthanized, and lungs were harvested and assessed for metastatic colonization. The number of metastatic lesions was quantified using a stereo microscope (Nikon, Tokyo). The percentage of the tumor area/total area was also quantified by ImageJ software.
B16F10-Nex2 tumor cells (2×10^5) in RPMI (100 μl) were injected in both animal groups in the tail veins on day 0. Animals were sacrificed on day 22, or 10 days after the last administration of the peptide, and their lungs were examined for dark melanotic nodules.
C57Bl6 mice were intravenously challenged with 4×10^5 syngeneic B16F10-Nex2 cells in 0.1 ml of RPMI without FBS.
Mice were injected with 5×10^5 B16F10-Nex2 cells i.v. suspended in 100 μl PBS. […] Imiquimod at 50 μg/100 μl was injected i.p. in 3 alternate days; CpG ODN 1585, i.p., in two alternate days; and Poly (I:C), i.p., in two alternate days. After 15 days of tumor challenge, the animals were sacrificed, the lungs were removed and the pulmonary nodules were counted.

[2] = test system: LPS stimulated DCs characterized by CD11c+ MHC-II+; assay: Co-stimulatory markers of LPS stimulated murine bone-marrow DCs; format: cell-based
Text: Rb9 immunomodulation of murine bone-marrow dendritic cells (DCs) was also examined focusing on co-stimulatory markers.

[3] = test system: T lymphocytes of lungs, spleen and lymph nodes; assay: Flow cytometry of Treg, T-CD4+ and T-CD8+ cells after prophylactic DC protocol; format: in vivo, mice; details: spleen and lymph nodes (except lungs), day 29, DCs stimulated by peptide
Experimental: On day 14, mice were inoculated i.v. with B16F10.Nex2 melanoma tumor cells and on day 29, lungs, spleen and cervical and axillary lymph nodes were examined for CD3+ cells, and the proportion of T-CD4+ and T-CD8+ cells.
The lungs were incubated with 2 mg/ml of collagenase for 40 min at 37° C. before maceration. The cell suspension was incubated with cold hemolytic buffer for 1 min and then centrifuged. The pellet was suspended with RPMI medium and counted. 1×10^6 Cells of each group were processed and stained using the Treg Detection Kit (Miltenyi Biotec, Cambridge, USA). Lymphocytes were characterized using anti-CD4 (FITC), anti-CD25 (PE) and anti-Foxp3 (APC). Samples were analyzed by flow cytometry using FACSCantoII (Becton Dickinson, San Jose, Calif., USA). Acquired data were analyzed using the FlowJo V10 (TreeStar Inc., Ashland, Oreg., USA). The percentages of Foxp3^+ in CD4^+CD25^+ lymphocytes are indicated.
The cell suspension was incubated with cold hemolytic buffer for 1 min and then centrifuged. The pellet was suspended with RPMI medium and counted. 1×10^6 Cells of each group were stained with anti-CD3 (PE) and anti-CD4 (FITC) or anti-CD3 (PE) and anti-CD8 (FITC). All antibodies used were purchase from Miltenyi Biotec, Cambridge, USA. Samples were analyzed by flow cytometry using FACSCantoII (Becton Dickinson, San Jose, Calif., USA). Acquired data were analyzed using the FlowJo V10 (TreeStar Inc., Ashland, Oreg., USA). The percentages of CD4^+ or CD8^+ in CD3^+ lymphocytes are indicated.

[4] = test system: B16F10-Nex2 melanoma cells; assay: Prophylactic adoptive transfer of peptide-stimulated dendritic cells, metastatic melanoma; format: in vivo, syngeneic mice; details: DCs incubated with 50 μg/ml peptide, with or without tumor cell lysate; s.c.; tumor challenge day 14, count day 29
Experimental: DCs were obtained from the bone marrow of 6 to 8-week-old C57Bl6 mice. Briefly, femora and tibiae from mice were removed and stripped of muscles and tendons; both bone ends were cut, and bone marrow was extracted by placing the bone pieces into 1-ml tips, which in turn were inserted into 15-ml tubes and centrifuged for 10 minutes at 1500 rpm. Cells were resuspended in DMEM and cell clusters were dissociated by repeated pipetting. The total bone marrow cells were cultured in 100-mm treated tissue culture dish in 10 ml of R10 medium (DMEM medium supplemented with 2 mM glutamine, 10,000 U/ml penicillin, 10 mg/ml streptomycin, 50 μM 2-mercaptoethanol, 1 mM sodium pyruvate, MEM-nonessential aminoacids, MEM Vitamin solution, 10% heat-inactivated fetal bovine serum and GM-CSF (20 ng/ml) and IL-4 (40 ng/ml). Fresh medium (3 ml) with GM-CSF (200 ng/ml) and IL-4 (400 ng/ml) was added every 3 days. On day 7, adherent cells, that were harvested using PBS 2 mM EDTA, together with the non-adherent cells were pooled and used as the starting cell source for the experiments. BMDC Protocol 2
DCs were inoculated s.c. in syngeneic mice. On day 14, mice were inoculated i.v. with melanoma tumor cells (5×10^5 cells) and on day 29, the lung melanotic nodules were counted.

splenocytes = assay: Splenocyte cytokine production in melanoma-bearing treated mice (ELISA); format: in vivo; details: 300 μg i.p. 5 consecutive days
Experimental: Mice were challenged with 5×10^5 B16F10-Nex2 cells via the i.v. route. […] Peptides at 300 μg solubilized in 10 μl distilled H2O and 90 μl of PBS were injected via i.p. route per animal, for 5 consecutive days initiating one day after tumor cell challenge. Seventeen days after tumor challenge mice were sacrificed and spleens were removed. Splenocytes after incubation in hemolysis buffer were suspended in R10 medium and plated in 6-well plates and 10^6 cells/well. Cells were incubated for 72 h with or without tumor cell lysate (from 10^5 B16F10-Nex2 cells) in triplicate. The supernatants were collected, and cytokines measured by ELISA (FIG. 11).

CD11c+ cells = assay: TGF-beta1 ELISA of CD11c+ cells from lymphoid organs of melanoma-bearing treated mice; format: in vivo, C57Bl6 mice; details: 300 μg/dose i.p., day 17
Experimental: Animals were sacrificed on day 17 and their lungs, cervical and axillary lymph nodes and spleen were processed for examination. Lymph nodes and spleen were macerated separately, DMEM was added and passed through a cell strainer. CD11c+ cells were isolated using mouse CD11c+ beads and magnetic sorting. Cells were suspended in R10 medium and plated in […] at 10^6 cells/well. Cells were incubated for 24 h with or without tumor cell lysate (B16F10 stimulus). The supernatant was used in a TGF-beta1 ELISA test.

[5] = test system: colorectal CT26 carcinoma cells; assay: Subcutaneous syngeneic colorectal carcinoma model; format: in vivo, Balb/c mice
[6] = test system: CD11c+, MHC II+ bone marrow DCs; assay: Marker expression of bone marrow DCs with or without Poly I:C (flow cytometry); format: cell-based, C57Bl6 mice; details: 60 h
Experimental: DCs were obtained from the bone marrow of 6 to 8-week-old C57Bl6 mice. Briefly, femora and tibiae from mice were removed and stripped of muscles and tendons; both bone ends were cut and bone marrow was flushed out with RPMI 1640 medium using a 21-gauge needle and syringe. Cell clusters were dissociated by passing through a cell strainer and 0.45 M ammonium chloride was added for red cell lysis. After washing the cell suspension twice in RPMI 1640, 10×10^6 bone marrow cells per well were cultured in non-treated tissue-culture 6-well plates with 4 ml of complete medium (RPMI 1640 supplemented with 2 mM glutamine, 10,000 U/mL penicillin, 10 mg/mL streptomycin, 50 μM 2-mercaptoethanol, 10% heat-inactivated fetal calf serum with GM-CSF (50 ng/ml). Half of the medium was removed on day 2 and new medium supplemented with GM-CSF (100 ng/ml) and warmed at 37° C. was added. The culture medium was entirely discarded on day 3 and replaced by fresh warmed medium with GM-CSF (50 ng/ml). On day 6, non-adherent cells in the culture supernatant and loosely adherent cells harvested by gentle washing with PBS were pooled and used as the starting cell source for the experiments.
For murine cell analysis, these were stained in ice-cold PBS containing BSA (0.5%) and EDTA (2 mM) using appropriate antibody-fluorophore conjugates. Multiparameter analysis was performed on a BD FACSCanto II analyzer (BD Biosciences) and analyzed with FlowJo software (Tree Star). The following antibodies were used: anti-MHC Class II, anti-CD11c, anti-CD8a, anti-CD3e, anti-CD4, anti-CD86, anti-CD40, anti-CD80, Prior to acquisition, cells were resuspended in PBS/BSA 0.5%/EDTA (2 mM).
DCs were centrifuged and washed once with MACS buffer. Cells (10^6) were resuspended in 45 μl of buffer and 5 μl of antibodies/fluorophore, CD11c APC, MHC II PE, CD80 FITC, CD86 VioBlue and CD40 PE. The samples were acquired in BD FACS Canto II using the FacsDiva software. The data were analyzed by using the FlowJo software.

[7] = 100 μg/ml peptide + 12.5 μg/ml Poly I:C

CC(C)Cn1cnc2c(N)nc3ccccc3c21 [Imiquimod, reference compound]
antitumor activity (pulmonary nodules) ([1]; i.p., 15 days after challenge): Antitumor activities of Rb9 and Imiquimod were the same

Poly I:C [reference compound]
antitumor activity (pulmonary nodules) ([1]; i.p., 15 days after challenge): strongly active
antitumor activity of Poly I:C combined with Rb9 ([1]; i.p., 15 days after challenge): strongly active

[AARGETARATFAYWGQG], NH2 [Rb10A1]
CD40 expression [2]: regulated CD40 expression
expression of CD80 and CD86 ([2]; Rb9 mainly at 50 μg/ml): significantly stimulated
proportion of T-CD8+ to T-CD4+ cells [3]: T-CD8+ cells greatly predominated over T-CD4+ effector cells
protective effect of peptide-stimulated DCs (lung melanotic nodules) [4]: also protective against melanoma in the metastatic model but less effectively than Rb9
cytokine production in splenocytes (generally) (splenocytes): downregulated
IL-12 production in splenocytes (splenocytes; no stimulus necessary): comparable in the three groups
TGF-beta in tumor-lysate stimulated CD11c+ cells from the spleen (CD11c+ cells): markedly inhibited
TGF-beta secreted by lymph node CD11c+ cells (CD11c+ cells; vs vehicle (PBS) control cells stimulated by melanoma lysate): fully inhibited

[CAEATYWRRGGQAAGFTC], NH2 (C-C) (CAEATYWRRGGQAAGFTC-NH2; disulfide 1-18 (inferred)) [Scr1, cyclic scramble peptide of Rb9]
activity against metastatic melanoma of scramble peptides [1]: activity similar to Rb9

[CARGETARATFAYWGQG], NH2 (CARGETARATFAYWGQG-NH2) [Rb10, linear peptide lacking terminal cysteine]
subcutaneous tumor growth ([5]; CT26 cells of high virulence (Argentina cell line), 5 alternate days): delayed
survival time ([5]; CT26 cells of high virulence, H-2^d syngeneic animals): prolonging the survival time

[CETWRGAATRGAFQAYGC], NH2 (C-C) (CETWRGAATRGAFQAYGC-NH2; disulfide 1-18 (inferred)) [Scr3, cyclic scramble peptide of Rb9]
activity against metastatic melanoma of scramble peptides [1]: good negative control

[RATFAYWG], NH2 [Rb9-MID]
CD40 expression over Poly I:C [6, 7]: stimulated CD40 over Poly I:C much like Rb9
expression of MHC II over Poly I:C and Rb9 [6, 7]: significantly increased
expression of CD80 ([6]; 100 μg/ml peptide, with or without Poly I:C): similar

Source: patent US11479604B2, “Immunomodulatory peptides and methods for modulating the immune system in a subject” (Recepta Biopharma S.A., priority 2017, dated 2022)
